Assay results as given in patent publication US8183395B2, “Compositions and methods for treating cancer” (Rutgers, The State University of New Jersey, priority 2007, dated 2012).

Legend:
Type in all cases: cell-based
[1] = test system: W2 (apoptosis competent) cells; assay: Apoptosis induction screen, MTT cell viability, W2 cells
Excerpt: (§1) Pro-apoptotic Bax and Bak are the essential and redundant regulators of apoptosis required for suppressing tumor growth and chemotherapeutic response. Because D3 cells are genetically deleted for Bax and Bak, there is no means to restore apoptosis in these cells, yet all apoptosis regulatory mechanisms upstream (Bcl-2, Bcl-xL, Bim, Nbk/Bik, Puma, Noxa, caspase-3, caspase-7) remain intact. […] This feature permits the use of W2 and D3 cell lines in biological screening for compounds that promote apoptosis by the criteria of killing W2 and not D3 cells. Compounds that indiscriminately kill both apoptosis-competent W2 and apoptosis-defective D3 cells are eliminated as non-specifically toxic.
(§2) W2 and D3 cells were plated in 96 and 24-well plates and incubated for 24 hours after which they were evenly spread at about 50% confluency. At this time, compounds dissolved in DMSO and diluted in growth medium (DMEM) were added to the cells at various concentrations. […] Cell viability was determined using a modification of the MTT assay, where the reduction of yellow tertazolium salt (MTT-3-(4,5-Dimethylthiazol-2-yl)-2,5) to purple formazan indicates mitochondrial activity, and thus cell viability. […] After 30 minutes incubation at 37° C., with shaking, absorbance was read at 570 nm on a Spectra MAX 250 (Molecular Devices) plate reader. Differential growth from time 0 to 48 hours was calculated. […]

[2] = test system: D3 (apoptosis defective) cells; assay: Apoptosis induction screen, MTT cell viability, D3 cells; conditions: MTT assay, time 0 to 48 hours, Compound I 12 μM (FIG. 3a)
Excerpt: as §1, §2

[3] = test system: apoptosis competent W2 cells; assay: Time-lapse microscopy of cell division and viability, W2 cells; design: sensitivity of W2 cells to apoptosis: dose or concentration left out as unconfirmed
Protocol: (§3) In order to determine the differential impact of apoptosis induction on cell growth and viability of W2 and D3 cells, cell division and viability was monitored via time-lapse microscopy. Cells were cultured in a time-lapse chamber equipped with controlled environmental conditions. The time-lapse microscopy system consisted of an Olympus IX71 inverted microscope fitted with temperature, humidity and CO2 controlled environmental chamber (Solent Scientific, UK) and a Coolsnap ES cooled
(§4) CCD camera. Image capturing and analysis were performed using Image-Pro Plus software (Media Cybernetics, USA). Phase contrast images (100×) at multiple fields were obtained for the indicated time period. Time-lapse images were converted to movies using Image-Pro Plus software with custom modifications and a graphic data processing workstation (Dell Precision 670).
(§5) W2 and D3 cells were incubated for 48 hours in the presence of Compound I […] (FIG. 3b).

[4] = test system: apoptosis resistant D3 cells; assay: Time-lapse microscopy of cell division and viability, D3 cells; design: dose or concentration left out as unconfirmed
Protocol: as §3, §4, §5

Compound | death of W2 ([1]; MTT assay, time 0 to 48 hours, Compound I 12 μM (FIG. 3a)) | growth of D3 [2] | sensitivity of W2 cells to apoptosis ([3]; 48 hours) | time to induction of cell death of W2 cells (rounded and detached) ([3]; DMEM with 10% FBS, 5% CO2 at 37° C.) | growth arrest in treated D3 cells [4] | survival of the D3 cells [4] | viability of D3 cells ([4]; at 48 hours, persisted following 72 hours) | apoptosis induction (positive control) ([1]; W2 and D3 cells, 0.1 μM staurosporine)
C=C1CC/C=C(\C)CC[C@@H]2C(C(CC3OC3(C)C)OC(C)=O)=CO[C@H](OC(C)=O)[C@@H]12 (some centres unmarked) [Compound I, 9-deacetoxyxeniculin] | 50% | 61% | highly sensitive to apoptosis | 18 to 24 h | clear indication of growth arrest | at least 72 hours | retained their viability | –
CN[C@@H]1C[C@H]2O[C@@](C)([C@@H]1OC)n1c3ccccc3c3c4c(c5c6ccccc6n2c5c31)C(=O)NC4 [staurosporine, reference compound] | – | – | – | – | – | – | – | induced apoptosis at comparable levels to Compound I
